Key:
[1] = target: Epidermal growth factor receptor (Homo sapiens, UniProt P00533); assay: Inhibitory activity against EGFR
[2] = Volume of distribution in rat at 5 mg/kg, po and 2 mg/kg, iv; type: ADME, organism-based; conditions: in vivo, read-out: Vdss
[3] = Half life in rat at 5 mg/kg, po and 2 mg/kg, iv; type: ADME, organism-based; conditions: in vivo
[4] = Percent of unbound ligand in rat plasma at 5 mg/kg, po and 2 mg/kg, iv; type: ADME, organism-based
[5] = Volume of distribution in mouse at 5 mg/kg, po and 2 mg/kg, iv; type: ADME, organism-based; conditions: in vivo, read-out: Vdss
[6] = Bioavailability in mouse at 5 mg/kg, po and 2 mg/kg, iv; type: ADME, organism-based; conditions: in vivo
[7] = Plasma clearance in mouse at 5 mg/kg, po and 2 mg/kg, iv; type: ADME, organism-based
LoVo = assay: Inhibition of tumor volume in human LoVo cell xenografted in mice at 100 mg/kg, po; conditions: Mus musculus, read-out: Inhibition
[8] = Bioavailability in rat at 5 mg/kg, po and 2 mg/kg, iv; type: ADME, organism-based; conditions: in vivo
[9] = Percent of unbound ligand in mouse plasma at 5 mg/kg, po and 2 mg/kg, iv; type: ADME, organism-based
[10] = Half life in mouse at 5 mg/kg, po and 2 mg/kg, iv; type: ADME, organism-based; conditions: in vivo
[11] = Plasma clearance in rat at 5 mg/kg, po and 2 mg/kg, iv; type: ADME, organism-based

Sequence of Epidermal growth factor receptor (P00533 whole entry): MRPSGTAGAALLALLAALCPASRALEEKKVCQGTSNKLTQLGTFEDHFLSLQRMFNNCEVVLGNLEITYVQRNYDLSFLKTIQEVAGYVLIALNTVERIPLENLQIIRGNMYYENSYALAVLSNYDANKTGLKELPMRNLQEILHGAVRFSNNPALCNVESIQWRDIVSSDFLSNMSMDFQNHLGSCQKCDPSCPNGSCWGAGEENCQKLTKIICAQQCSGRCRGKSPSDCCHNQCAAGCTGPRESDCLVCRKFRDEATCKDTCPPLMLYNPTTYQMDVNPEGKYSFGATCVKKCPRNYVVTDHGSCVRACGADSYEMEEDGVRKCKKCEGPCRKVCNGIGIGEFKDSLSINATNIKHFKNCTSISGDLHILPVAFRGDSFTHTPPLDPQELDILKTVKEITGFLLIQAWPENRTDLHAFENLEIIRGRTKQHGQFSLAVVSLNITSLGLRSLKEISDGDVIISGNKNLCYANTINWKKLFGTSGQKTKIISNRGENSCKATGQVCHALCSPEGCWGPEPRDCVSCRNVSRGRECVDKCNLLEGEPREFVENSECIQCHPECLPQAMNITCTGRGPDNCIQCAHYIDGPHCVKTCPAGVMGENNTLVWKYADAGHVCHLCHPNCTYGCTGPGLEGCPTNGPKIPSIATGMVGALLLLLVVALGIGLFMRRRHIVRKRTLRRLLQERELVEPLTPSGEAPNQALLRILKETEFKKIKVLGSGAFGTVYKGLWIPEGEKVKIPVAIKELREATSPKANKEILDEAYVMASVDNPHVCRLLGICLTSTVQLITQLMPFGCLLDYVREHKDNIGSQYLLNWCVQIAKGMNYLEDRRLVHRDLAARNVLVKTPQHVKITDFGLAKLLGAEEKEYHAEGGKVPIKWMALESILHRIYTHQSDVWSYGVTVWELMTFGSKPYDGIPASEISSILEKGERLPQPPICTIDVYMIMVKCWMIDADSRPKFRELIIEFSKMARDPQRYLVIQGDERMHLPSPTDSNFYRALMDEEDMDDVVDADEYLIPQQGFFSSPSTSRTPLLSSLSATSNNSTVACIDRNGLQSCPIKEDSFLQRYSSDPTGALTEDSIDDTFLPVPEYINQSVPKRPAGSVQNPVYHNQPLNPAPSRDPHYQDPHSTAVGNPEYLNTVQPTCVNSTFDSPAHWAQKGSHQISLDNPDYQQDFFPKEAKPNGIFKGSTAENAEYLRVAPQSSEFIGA

Row | Compound | IC50 [1] [nM] | also measured
1 | COc1cc(OC2CCN(S(C)(=O)=O)CC2)c2c(Nc3ccc(F)c(Cl)c3)ncnc2c1 | 9600 | –
2 | COc1cc(OC2CCOCC2)c2c(Nc3ccc(F)c(Cl)c3)ncnc2c1 | 1380 | –
3 | COc1cc(OC(C)C)c2c(Nc3ccc(F)c(Cl)c3)ncnc2c1 | 8070 | –
4 | COc1cc(OC2CCN(C)CC2)c2c(Nc3ccc(F)c(Cl)c3)ncnc2c1 | 21 | Vd [2]: 12.3 L/kg; half-life [3]: 2.9 h; fraction unbound [4]: 0.0251; Vd [5]: 8.2 L/kg; bioavailability [6]: 103%; clearance [7]: 20 mL/min/kg; inhibition in vivo at 100 mg/kg (LoVo): 60%; bioavailability [8]: 63%; fraction unbound [9]: 0.0311; half-life [10]: 5.2 h; clearance [11]: 66 mL/min/kg
5 | COc1ccc2ncnc(Nc3ccc(F)c(Cl)c3)c2c1OC1CCN(C)CC1 | 225 | –
6 | COc1cc(OC2CCN(C(C)=O)CC2)c2c(Nc3ccc(F)c(Cl)c3)ncnc2c1 | 873 | –
7 | CCN1CCC(Oc2cc(OC)cc3ncnc(Nc4ccc(F)c(Cl)c4)c23)CC1 | < 2 | –

Second part, led by results:

Row | IC50 [1] [nM] | Compound | also measured
8 | 66 | CN1CCN(CCCOc2cc(OC3CCOCC3)c3c(Nc4ccc(F)c(Cl)c4)ncnc3c2)CC1 | –
9 | 3 | CN1CCC(Oc2cccc3ncnc(Nc4ccc(F)c(Cl)c4)c23)CC1 | –
10 | < 2 | CCCN1CCC(Oc2cc(OC)cc3ncnc(Nc4ccc(F)c(Cl)c4)c23)CC1 | –
11 | 671 | COCCOc1cc(OC2CCOCC2)c2c(Nc3ccc(F)c(Cl)c3)ncnc2c1 | –
12 | 10 | COc1cc(OC2CCNCC2)c2c(Nc3ccc(F)c(Cl)c3)ncnc2c1 | –

Reference: ChEMBL document CHEMBL1146052, “Inhibitors of epidermal growth factor receptor tyrosine kinase: Novel C-5 substituted anilinoquinazolines designed to target the ribose pocket” (Bioorg Med Chem Lett, 2006)
